# Tests used:
# FADD−/− Jurkat cells = assay: Necroptosis inhibition assay, TNF-α-induced necroptosis (CellTiter-Glo 2.0); format: cell-based, human; conditions: TNF-α 15 ng/mL; for Necroptosis inhibition assay (Rescue %) 1 μM: compound 1 μM; for Necroptosis inhibition assay (Rescue %) 10 μM: compound 10 μM
# Summary of the method: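 FADD−/− Jurkat cells preincubated 30 min at room temperature with compound at 0.1, 1 and 10 μM final, then stimulated with TNF-α (15 ng/mL final) for 20–24 h at 37 °C, 5% CO2. Viability read as ATP luminescence; cytotoxicity and necroptosis inhibition rate calculated from luminescence values.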
# MLKL [1] = target: T1, MLKL (Homo sapiens, UniProt Q8NB16); assay: MLKL degradation assay in HepG2 cell line (western blot); format: cell-based; set-up: endogenous in cells; host or cells: HepG2 or HaCaT; conditions: cell line not given; for Degradation assay (Degradation %) 1 μM: compound 1 μM; for Degradation assay (Degradation %) 10 μM: compound 10 μM
# T1 sequence (Q8NB16 1-471): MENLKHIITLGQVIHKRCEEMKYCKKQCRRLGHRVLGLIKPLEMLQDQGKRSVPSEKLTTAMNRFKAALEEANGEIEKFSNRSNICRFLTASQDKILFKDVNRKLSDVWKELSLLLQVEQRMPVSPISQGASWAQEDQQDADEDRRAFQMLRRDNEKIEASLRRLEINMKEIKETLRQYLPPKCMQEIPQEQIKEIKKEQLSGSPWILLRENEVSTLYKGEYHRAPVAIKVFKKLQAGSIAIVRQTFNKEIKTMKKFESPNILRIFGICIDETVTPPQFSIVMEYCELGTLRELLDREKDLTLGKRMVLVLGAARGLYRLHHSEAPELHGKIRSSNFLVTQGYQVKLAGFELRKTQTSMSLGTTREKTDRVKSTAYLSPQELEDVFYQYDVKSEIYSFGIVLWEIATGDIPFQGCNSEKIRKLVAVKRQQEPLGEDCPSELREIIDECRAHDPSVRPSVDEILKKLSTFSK
# Summary of the method: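 HepG2 cells were treated 20-24 h at 37 °C with compound at 1 or 10 μM final. RIPA lysates were normalized by BCA, and 10-15 μg protein per lane was resolved by SDS-PAGE. MLKL was detected by western blot with chemiluminescence.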
# MLKL [2] = target: T1, MLKL; assay: Measurement of binding affinity with MLKL receptor (competitive binding assay, Kd); set-up: made in house; host or cells: HEK 293 cell line (T7 phage in E. coli BL21-derived host is also described)
# Summary of the method: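 MLKL was produced in HEK 293 cells and tagged with DNA for detection. Liganded beads were blocked with excess biotin and washed to cut non-specific binding, then compounds (111× DMSO stocks, 0.9% DMSO in assay) competed for binding. Eluate kinase was measured by qPCR for Kd.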
Compound,Necroptosis inhibition assay (Rescue %) 1 μM (FADD−/− Jurkat cells) [%],Necroptosis inhibition assay (Rescue %) 10 μM (FADD−/− Jurkat cells) [%],Degradation assay (Degradation %) 1 μM (MLKL [1]) [%],Degradation assay (Degradation %) 10 μM (MLKL [1]) [%],Kd (MLKL [2]) [nM]
"Nc1ncc(-c2cnn(C3CCN(CCOCCNC(=O)C4CN(c5cccc6c5C(=O)N(C5CCC(=O)NC5=O)C6=O)C4)CC3)c2)nc1C(=O)O[C@@H](C(=O)Nc1ccc(F)cc1)c1ccccc1 (stereo partly drawn) [TDH-126, (R)-2-((4-fluorophenyl)amino)-2-oxo-1-phenylethyl 3-amino-6-(1-(1-(2-(2-(1-(2-(2,6-dioxopiperidin-3-yl)-1,3-dioxoisoindolin-4-yl)azetidine-3-carboxamido)ethoxy)ethyl)piperidin-4-yl)-1H-pyrazol-4-yl)pyrazine-2-carboxylate]",19.35,58.35,31.29,81.59,9.2
"Nc1ncc(-c2cnn(C3CCN(CCOCCNC(=O)C4CN(c5ccc6c(c5)C(=O)N(C5CCC(=O)NC5=O)C6=O)C4)CC3)c2)nc1C(=O)O[C@@H](C(=O)Nc1ccc(F)cc1)c1ccccc1 (stereo partly drawn) [TDH-127, (R)-2-((4-fluorophenyl)amino)-2-oxo-1-phenylethyl 3-amino-6-(1-(1-(2-(2-(1-(2-(2,6-dioxopiperidin-3-yl)-1,3-dioxoisoindolin-5-yl)azetidine-3-carboxamido)ethoxy)ethyl)piperidin-4-yl)-1H-pyrazol-4-yl)pyrazine-2-carboxylate]",34.64,49.65,4.37,43.64,5.6
"Nc1ncc(-c2cnn(C3CCN(CCOCCNC(=O)C4CCN(c5cccc6c5C(=O)N(C5CCC(=O)NC5=O)C6=O)CC4)CC3)c2)nc1C(=O)O[C@@H](C(=O)Nc1ccc(F)cc1)c1ccccc1 (stereo partly drawn) [TDH-128, (R)-2-((4-fluorophenyl)amino)-2-oxo-1-phenylethyl 3-amino-6-(1-(1-(2-(2-(1-(2-(2,6-dioxopiperidin-3-yl)-1,3-dioxoisoindolin-4-yl)piperidine-4-carboxamido)ethoxy)ethyl)piperidin-4-yl)-1H-pyrazol-4-yl)pyrazine-2-carboxylate]",26.22,56.56,11,68.52,14
"Nc1ncc(-c2cnn(C3CCN(CCOCCNC(=O)C4CCN(c5ccc6c(c5)C(=O)N(C5CCC(=O)NC5=O)C6=O)CC4)CC3)c2)nc1C(=O)O[C@@H](C(=O)Nc1ccc(F)cc1)c1ccccc1 (stereo partly drawn) [TDH-129, (R)-2-((4-fluorophenyl)amino)-2-oxo-1-phenylethyl 3-amino-6-(1-(1-(2-(2-(1-(2-(2,6-dioxopiperidin-3-yl)-1,3-dioxoisoindolin-5-yl)piperidine-4-carboxamido)ethoxy)ethyl)piperidin-4-yl)-1H-pyrazol-4-yl)pyrazine-2-carboxylate]",49.22,67.79,32.68,57.68,7.1
"Nc1ncc(-c2cnn(C3CCN(CCOCCNc4cccc5c4C(=O)N(C4CCC(=O)NC4=O)C5=O)CC3)c2)nc1C(=O)O[C@@H](C(=O)Nc1ccc(F)cc1)c1ccccc1 (stereo partly drawn) [TDH-130, (R)-2-((4-fluorophenyl)amino)-2-oxo-1-phenylethyl 3-amino-6-(1-(1-(2-(2-((2-(2,6-dioxopiperidin-3-yl)-1,3-dioxoisoindolin-4-yl)amino)ethoxy)ethyl)piperidin-4-yl)-1H-pyrazol-4-yl)pyrazine-2-carboxylate]",40.74,27.69,58.3,24.87,11
"Nc1ncc(-c2cnn(C3CCN(CCOCCNc4ccc5c(c4)C(=O)N(C4CCC(=O)NC4=O)C5=O)CC3)c2)nc1C(=O)O[C@@H](C(=O)Nc1ccc(F)cc1)c1ccccc1 (stereo partly drawn) [TDH-131, (R)-2-((4-fluorophenyl)amino)-2-oxo-1-phenylethyl 3-amino-6-(1-(1-(2-(2-((2-(2,6-dioxopiperidin-3-yl)-1,3-dioxoisoindolin-5-yl)amino)ethoxy)ethyl)piperidin-4-yl)-1H-pyrazol-4-yl)pyrazine-2-carboxylate]",24.56,0.96,51.13,47.86,3.9
"Nc1ncc(-c2cnn(C3CCN(CCCCCCNC(=O)CNc4ccc5c(c4)C(=O)N(C4CCC(=O)NC4=O)C5=O)CC3)c2)nc1C(=O)O[C@@H](C(=O)Nc1ccc(F)cc1)c1ccccc1 (stereo partly drawn) [TDH-132, (R)-2-((4-fluorophenyl)amino)-2-oxo-1-phenylethyl 3-amino-6-(1-(1-(6-(2-((2-(2,6-dioxopiperidin-3-yl)-1,3-dioxoisoindolin-5-yl)amino)acetamido)hexyl)piperidin-4-yl)-1H-pyrazol-4-yl)pyrazine-2-carboxylate]",75.06,54.76,40.32,50.03,1.2
"Nc1ncc(-c2cnn(C3CCN(CCCCCCNC(=O)COc4cccc5c4C(=O)N(C4CCC(=O)NC4=O)C5=O)CC3)c2)nc1C(=O)O[C@@H](C(=O)Nc1ccc(F)cc1)c1ccccc1 (stereo partly drawn) [TDH-133, (R)-2-((4-fluorophenyl)amino)-2-oxo-1-phenylethyl 3-amino-6-(1-(1-(6-(2-((2-(2,6-dioxopiperidin-3-yl)-1,3-dioxoisoindolin-4-yl)oxy)acetamido)hexyl)piperidin-4-yl)-1H-pyrazol-4-yl)pyrazine-2-carboxylate]",91.87,68.81,53.05,40.54,0.78
"Nc1ncc(-c2cnn(C3CCN(CCOCCNC(=O)COc4cccc5c4C(=O)N(C4CCC(=O)NC4=O)C5=O)CC3)c2)nc1C(=O)O[C@@H](C(=O)Nc1ccc(F)cc1)c1ccccc1 (stereo partly drawn) [TDH-134, (R)-2-((4-fluorophenyl)amino)-2-oxo-1-phenylethyl 3-amino-6-(1-(1-(2-(2-(2-((2-(2,6-dioxopiperidin-3-yl)-1,3-dioxoisoindolin-4-yl)oxy)acetamido)ethoxy)ethyl)piperidin-4-yl)-1H-pyrazol-4-yl)pyrazine-2-carboxylate]",50.04,86.09,14.36,54.11,3
"Nc1ncc(-c2cnn(C3CCN(CCOCCOCCNC(=O)COc4cccc5c4C(=O)N(C4CCC(=O)NC4=O)C5=O)CC3)c2)nc1C(=O)O[C@@H](C(=O)Nc1ccc(F)cc1)c1ccccc1 (stereo partly drawn) [TDH-135, (R)-2-((4-fluorophenyl)amino)-2-oxo-1-phenylethyl 3-amino-6-(1-(1-(2-(2-(2-(2-((2-(2,6-dioxopiperidin-3-yl)-1,3-dioxoisoindolin-4-yl)oxy)acetamido)ethoxy)ethoxy)ethyl)piperidin-4-yl)-1H-pyrazol-4-yl)pyrazine-2-carboxylate]",46.82,33.77,23.45,57.93,0.91
"Nc1ncc(-c2cnn(C3CCN(CC4CCN(C(=O)CNc5cccc6c5C(=O)N(C5CCC(=O)NC5=O)C6=O)CC4)CC3)c2)nc1C(=O)O[C@@H](C(=O)Nc1ccc(F)cc1)c1ccccc1 (stereo partly drawn) [TDH-136, (R)-2-((4-fluorophenyl)amino)-2-oxo-1-phenylethyl 3-amino-6-(1-(1-((1-((2-(2,6-dioxopiperidin-3-yl)-1,3-dioxoisoindolin-4-yl)glycyl)piperidin-4-yl)methyl)piperidin-4-yl)-1H-pyrazol-4-yl)pyrazine-2-carboxylate]",48.59,40.66,50.37,48.83,4.6
